According to patent publication US20100069433A1, “PROPHYLACTIC AND/OR THERAPEUTIC AGENT FOR HYPERLIPIDEMIA” (KOWA COMPANY, LTD., priority 2007, published 2010):

How the values were obtained:
[1] = tested on: total cholesterol concentration in blood plasma; assay: Total cholesterol concentration in blood plasma of rats after repeated oral administration (Example 1); assay type: in vivo, Male Sprague Dawley rats; details: oral once a day, pitavastatin 10 mg/kg, compound A 0.3 mg/kg, N = 8
Procedure: (§1) Male Sprague Dawley rats (Crl: CD (SD), Japan Charles River Co. Ltd., 6 weeks old) were taken for the test. Throughout the test period, the rats were bred in a breeding room maintained with a light/dark cycle (bright period under room light: 7 A.M. to 7 P.M.) at a temperature of 23±3° C. and a humidity of 55±15%, and were allowed to freely take solid feedstuff (CE-2; Oriental Yeast Co. Ltd.) and tap water. Compound A and pitavastatin were each suspended in a 0.5 mass % aqueous solution of methylcellulose (Metolose (registered trademark) SM-400, Shin-Etsu Chemical Co. Ltd.), and the amount of administration of the aqueous solution was adjusted to be 2 mL/kg. The suspension was stored in a shading bottle under refrigeration (4° C.), and the preparation was performed once every 7 days. Additionally, when the pitavastatin is a hydrate as in the case of the present Example, the water content of a standard product can be measured by a conventional method known to those ordinarily skilled in the art, and the amount required in the production of drug based on the water content of the “pitavastatin calcium hydrate” used in the present Example can be calculated. […] The two medicaments were orally administered repeatedly for 14 days at a rate of once a day (in the morning). The control group of the first group was orally administered with 2 mL/kg of a 0.5 mass % aqueous solution of methylcellulose. […] Furthermore, the LDL-cholesterol concentration in blood plasma was measured using high performance liquid chromatography according to the method of Usui et al. (Lipid Res., 43:805-814, 2002). The results were shown in the form of average value±standard error. A multiple group comparison between the control group and the drug administered groups was conducted using Dunnett' s multiple comparison test. A risk rate of less than 5% was determined to have a significant difference.

[2] = tested on: LDL-cholesterol concentration in blood plasma; assay: LDL-cholesterol concentration in blood plasma of rats after repeated oral administration (Example 1); assay type: in vivo, Male Sprague Dawley rats; details: one week after the administration, oral once a day, pitavastatin 10 mg/kg, compound A 0.3 mg/kg, N = 8; for LDL-cholesterol concentration in blood plasma, Average value ± Standard error: in mg/dL
Procedure: as §1

[3] = tested on: triglyceride concentration in blood plasma; assay: Triglyceride concentration in blood plasma of rats after repeated oral administration (Example 1); assay type: in vivo, Male Sprague Dawley rats; details: two weeks after the initiation of administration (14th day), oral once a day, pitavastatin 10 mg/kg, compound A 0.3 mg/kg, N = 8; for triglyceride concentration in blood plasma, Average value ± Standard error: in mg/dL
Procedure: as §1

[4] = tested on: triglyceride concentration in blood plasma; assay: Plasma triglyceride concentration in Zucker fatty rats after repeated oral administration (Example 2); assay type: in vivo, Male Zucker fatty rats; details: compound A 0.1 mg/kg, pitavastatin 10 mg/kg, fenofibrate 100 mg/kg; for triglyceride concentration in blood plasma, Average value ± Standard error / triglyceride concentration in blood plasma, Relative value compared to control group: two weeks (14th day), oral once a day, N = 7-8; for rate of decrease of the triglyceride concentration in blood plasma: two weeks, vs control group
Procedure: The effect of administration of compound A and pitavastatin on the plasma triglyceride concentration in this animal model was determined according to the following methods.
Male Zucker fatty rats (Crlj: ZUC-Lepr^fa, Japan Charles River Co. Ltd., 10 weeks old) were taken for the test.
Throughout the test period, the rats were bred in a breeding room maintained with a light/dark cycle (bright period under room light: 7 A.M. to 7 P.M.) at a temperature of 23±3° C. and a humidity of 55±15%, and were allowed to freely take solid feedstuff (CE-2; Oriental Yeast Co. Ltd.) and tap water.
Compound A, pitavastatin and fenofibrate (Sigma-Aldrich Co. Ltd.) were each suspended in a 0.5 mass % aqueous solution of methylcellulose (Metolose (registered trademark) SM-400, Shin-Etsu Chemical Co. Ltd.), and the amount of administration of the aqueous solution was adjusted to be 2 mL/kg. The suspension was stored in a shading bottle under refrigeration (4° C.), and the preparation was carried out once every 7 days. Additionally, when the pitavastatin was a hydrate as in the case of the present Example, the water content of a standard product was measured by a conventional method known to those ordinarily skilled in the art, and the amount required in the production of drug based on the water content of the “pitavastatin calcium hydrate” used in the present Example was calculated.
In order to average the total cholesterol concentration and the triglyceride concentration in blood plasma, the rats were divided into the following six groups (eight animals each group), that is, a control group as a first group, a group administered with compound A only (0.1 mg/kg) as a second group, a group administered with pitavastatin only (10 mg/kg) as a third group, a group administered with fenofibrate only (100 mg/kg) as a fourth group, a group administered with pitavastatin (10 mg/kg) and compound A (0.1 mg/kg) in combination as a fifth group, and a group administered with pitavastatin (10 mg/kg) and fenofibrate (100 mg/kg) in combination as a sixth group.
The two medicaments were orally administered repeatedly for 14 days at a rate of once a day (in the morning). The control group of the first group was orally administered with 2 mL/kg of a 0.5 mass % aqueous solution of methylcellulose.
On the 14th day after the initiation of administration, the rats were fasted for 4 hours from administration, then blood was collected, and the triglyceride concentration in blood plasma was measured by an enzymatic method.
A multiple group comparison between the control group and the drug administered groups was conducted using Dunnett's multiple comparison test. A risk rate of less than 5% was determined to have a significant difference.

blood glucose level = assay: Oral glucose tolerance test in Zucker fatty rats (Example 3); assay type: in vivo, Male Zucker fatty rats; details: 28 days oral once a day, compound A 0.3 mg/kg, pitavastatin 3 mg/kg, fenofibrate 100 mg/kg
Procedure: As a method for examining diabetes mellitus, an oral glucose tolerance test, that is, a method in which a test subject fasted overnight is orally fed with a glucose solution, and blood is collected before and after the feeding, to examine the degree of increase in the blood glucose level, is widely performed. Thus, the Zucker fatty rat was used and administered with medicaments, and then an oral glucose tolerance test was performed to investigate the influence of the medicament of the present invention exerted on the blood glucose level. Male Zucker fatty rats (Crlj: ZUC-Lepr^fa, Japan Charles River Co. Ltd., 9 weeks old) were taken for the test. […] Additionally, when the pitavastatin was a hydrate as in the case of the present Example, the water content of a standard product was measured by a conventional method known to those ordinarily skilled in the art, and the amount required in the production of drug based on the water content of the “pitavastatin calcium hydrate” used in the present Example was calculated. […] The blood glucose level was measured by an enzymatic method. […] A risk rate of less than 5% was determined to have a significant difference.

[5] = tested on: total plasma cholesterol concentration; details: results of clinical trials; cited from earlier work
[6] = one week after administration (7th day), 4 h fasted
[7] = two weeks after the initiation of administration (14th day)
[8] = two weeks after the initiation of administration (14th day), in mg/dL

CC[C@@H](Oc1cccc(CN(CCCOc2ccc(OC)cc2)c2nc3ccccc3o2)c1)C(=O)O [Compound A, (R)-2-[3-[[N-(Benzoxazol-2-yl)-N-3-(4-methoxyphenoxy)propyl]aminomethyl]phenoxy]butyric acid]
total cholesterol concentration in blood plasma, Average value ± Standard error [1, 6]: 48.3 ± 1.8 mg/dL | total cholesterol concentration in blood plasma, Relative value compared to control group ([1]; one week after administration (7th day)): 0.792 | total cholesterol concentration in blood plasma, Relative value compared to control group ([1]; one week after administration (7th day), listed as compound A): 0.903 | total cholesterol concentration in blood plasma, Relative value compared to control group [1, 7]: 0.752 | total cholesterol concentration in blood plasma, Average value ± Standard error [1, 8]: 43.4 ± 1.9 | LDL-cholesterol concentration in blood plasma, Relative value compared to control group [2]: 0.698 | LDL-cholesterol concentration in blood plasma, Average value ± Standard error [2]: 8.1 ± 0.4 | triglyceride concentration in blood plasma, Relative value compared to control group [3]: 0.806 | triglyceride concentration in blood plasma, Average value ± Standard error [3]: 33.3 ± 2.2 | triglyceride concentration in blood plasma, Relative value compared to control group ([3]; listed as compound A): 0.942 | triglyceride concentration in blood plasma, Average value ± Standard error [4]: 518.0 ± 106.0 mg/dL | triglyceride concentration in blood plasma, Relative value compared to control group [4]: 0.798 | rate of decrease of the triglyceride concentration in blood plasma [4]: 20% | change in blood glucose level over time after glucose loading (FIG. 3A) (blood glucose level): rapid increases in the blood glucose level

CC(C)OC(=O)C(C)(C)Oc1ccc(C(=O)c2ccc(Cl)cc2)cc1 [Fenofibrate, fenofibrate]
triglyceride concentration in blood plasma, Average value ± Standard error [4]: 546.3 ± 58.9 mg/dL | triglyceride concentration in blood plasma, Relative value compared to control group [4]: 0.841 | rate of decrease of the triglyceride concentration in blood plasma [4]: 16%

O=C(O)C[C@H](O)C[C@H](O)/C=C/c1c(C2CC2)nc2ccccc2c1-c1ccc(F)cc1 [Pitavastatin, pitavastatin calcium hydrate]
total cholesterol concentration in blood plasma, Average value ± Standard error [1, 6]: 55.1 ± 5.7 mg/dL | total cholesterol concentration in blood plasma, Relative value compared to control group ([1]; one week after administration (7th day), calcium hydrate): 0.903 | total cholesterol concentration in blood plasma, Relative value compared to control group ([1]; one week after administration (7th day), listed as pitavastatin, calcium hydrate): 0.792 | total cholesterol concentration in blood plasma, Relative value compared to control group [1, 7]: 0.997 | total cholesterol concentration in blood plasma, Average value ± Standard error [1, 8]: 57.5 ± 6.6 | LDL-cholesterol concentration in blood plasma, Relative value compared to control group [2]: 0.974 | LDL-cholesterol concentration in blood plasma, Average value ± Standard error [2]: 11.3 ± 1.8 | triglyceride concentration in blood plasma, Relative value compared to control group [3]: 0.942 | triglyceride concentration in blood plasma, Relative value compared to control group ([3]; calcium hydrate): 0.806 | triglyceride concentration in blood plasma, Average value ± Standard error [3]: 38.9 ± 3.1 | triglyceride concentration in blood plasma, Average value ± Standard error [4]: 612.2 ± 61.0 mg/dL | triglyceride concentration in blood plasma, Relative value compared to control group [4]: 0.943 | rate of decrease of the triglyceride concentration in blood plasma [4]: 6% | change in blood glucose level over time after glucose loading (FIG. 3A) (blood glucose level): rapid increases in the blood glucose level | rate of improvement in the total plasma cholesterol concentration [5]: 93.9%
